Experimental data published in patent US5780588A, “Elucidation and synthesis of selected pentapeptides” (priority 1993, dated 1998).

Legend:
[1] = system: P388 Lymphocytic Leukemia; test: Dolastatin 10 in murine in vivo system, P388 Lymphocytic Leukemia
Excerpt: (§1) Presently Dolastatin 10, a linear pentapeptide represents the most important member and is a potentially useful antineoplastic agent.

[2] = system: LOX Human Melanoma Xenograph; test: Dolastatin 10 in murine in vivo system, LOX Human Melanoma Xenograph (Nude Mouse)
Excerpt: as §1

Human Mammary Xenograph = test: Dolastatin 10 in murine in vivo system, Human Mammary Xenograph Nude Mouse
Excerpt: as §1

[3] = system: OVCAR-3 Human Ovary Xenograph; test: Dolastatin 10 in murine in vivo system, OVCAR-3 Human Ovary Xenograph Nude Mouse; conditions: 40 μg/kg
Excerpt: The synthesis of potentially useful peptides presents one of the most essential and promising approaches to new types of anticancer and immunosuppressant drugs. The Dolastatins, an unprecedented series of linear and cyclic antineoplastic and/or cytostatic peptides isolated from Indian Ocean sea hare Dolabella auricularia represent excellent leads for synthetic modification. The very productive sea hare Dolabella auricularia has produced a number of structurally distinct peptides with excellent antineoplastic activity. Presently Dolastatin 10, a linear pentapeptide represents the most important member and is a potentially useful antineoplastic agent. […] Recently the total synthesis and absolute configuration of this structurally unique and biologically active peptide was reported.

[4] = system: murine lymphocytic P388 leukemia cell line; test: Inhibition of murine lymphocytic P388 leukemia cell line; format: cell-based; conditions: MOUSE LEUKEMIA P388
Excerpt: (§2) The dipeptides (1a-1e) were in turn prepared by coupling dolaproine (5) with the respective amino acids. All compounds were characterized (physical and spectroscopic data) and tested against the murine lymphocytic P388 leukemia cell line as well as six major human cancer cell lines.

OVCAR-3 = test: Inhibition of human cancer cell line OVCAR-3 (Ovarian); format: cell-based
Excerpt: (§3) Current research in the control of cancer in the United States is coordinated by the National Cancer Institute (NCI). To determine whether a substance has anti-cancer properties, the NCI has established a systematic protocol. […] The protocol, and the established statistical means for analyzing the results obtained by the standardized testing are fully described in the literature. See: Boyd, Dr. Michael R., Principles & Practice of Oncology, PPO Updates, Volume 3, Number 10, October 1989, for an in depth description of the testing protocol; and Paull, K. D., "Display and Analysis of Patterns of Differential Activity of Drugs Against Human Tumor Cell Lines; Development of Mean Graph and COMPARE Algorithm", Journal of the National Cancer Institute Reports, Vol. 81, No. 14, Page 1088, Jul. 14, 1989 for a description of the methods of statistical analysis. Both of these references are incorporated herein by this reference thereto.
as §2

SF-295 = test: Inhibition of human cancer cell line SF-295 (CNS); format: cell-based
Excerpt: as §3, §2

A498 = test: Inhibition of human cancer cell line A498 (Renal); format: cell-based
Excerpt: as §3, §2

NCI-H460 = test: Inhibition of human cancer cell line NCI-H460 (Lung-NSC); format: cell-based
Excerpt: as §3, §2

KM20L2 = test: Inhibition of human cancer cell line KM20L2 (Colon); format: cell-based
Excerpt: as §3, §2

SK-MEL-3 = test: Inhibition of human cancer cell line SK-MEL-3 (Melanoma); format: cell-based
Excerpt: as §3, §2

Substance	ED50 [4] [ng/mL]	GI-50 (OVCAR-3) [µg/mL]	LC-50 (OVCAR-3) [µg/mL]	TGI (OVCAR-3) [ng/mL]	GI-50 (SF-295) [µg/mL]	LC-50 (SF-295) [µg/mL]	TGI (SF-295) [ng/mL]	GI-50 (A498) [µg/mL]	LC-50 (A498) [µg/mL]	TGI (A498) [ng/mL]	GI-50 (NCI-H460) [µg/mL]	LC-50 (NCI-H460) [µg/mL]	TGI (NCI-H460) [ng/mL]	GI-50 (KM20L2) [µg/mL]	LC-50 (KM20L2) [µg/mL]	TGI (KM20L2) [ng/mL]	GI-50 (SK-MEL-3) [µg/mL]	LC-50 (SK-MEL-3) [µg/mL]	TGI (SK-MEL-3) [ng/mL]	further results
Dolastatin 10	–	–	–	–	–	–	–	–	–	–	–	–	–	–	–	–	–	–	–	T/C ([1]; 3.25 μg/kg): 146; T/C ([1]; 6.5 μg/kg): 155; T/C ([2]; 3.25 μg/kg): 170; T/C ([2]; 6.5 μg/kg): 206; T/C ([2]; 13 μg/kg): 301; T/C ([2]; 26 μg/kg): 301; T/C (Human Mammary Xenograph; 6.25 μg/kg): 178; T/C (Human Mammary Xenograph; 13 μg/kg): 137; T/C [3]: 300
Dov-Val-Dil-Dap-Ile-OCH3 [pentapeptide 3d]	0.441	< 0.0001	0.043	< 0.1	< 0.0001	> 1	170	< 0.0001	> 1	< 0.1	< 0.0001	> 1	0.88	< 0.0001	> 1	< 0.1	< 0.0001	> 1	< 0.1	–
Dov-Val-Dil-Dap-Met-OCH3 [pentapeptide 3e]	0.389	< 0.0001	> 1	< 0.1	< 0.0001	> 1	56	< 0.0001	> 1	> 1000	< 0.0001	> 1	130	< 0.0001	> 1	0.15	< 0.0001	> 1	> 1000	–
Dov-Val-Dil-Dap-Phe-NH2 [pentapeptide 3b]	19.5	0.0076	0.066	3.7	0.00085	> 1	49	0.00097	> 1	6.2	0.000095	> 1	11	< 0.0001	0.083	19	0.00017	> 1	12	–
Dov-Val-Dil-Dap-Phe-OCH3 [pentapeptide 3a]	66.7	< 0.0001	> 1	1.1	< 0.0001	> 1	0.17	< 0.0001	> 1	2.9	< 0.0001	> 1	11	< 0.0001	> 1	1.1	< 0.0001	> 1	0.68	–
Dov-Val-Dil-Dap-Pro-OCH3 [pentapeptide 3c]	8.8	< 0.0001	> 1	< 0.1	< 0.0001	> 1	2.4	< 0.0001	> 1	5.4	< 0.0001	> 1	1.3	< 0.0001	> 1	2.2	< 0.0001	> 1	< 0.1	–
